Experimental data published in patent US20220387479A1, “NOVEL POVIDONE-IODINE PHARMACEUTICAL PREPARATION AND USES THEREOF” (priority 2021, published 2022).
Like-named read-outs stand apart in the source and are kept apart here.

Test system: SARS-CoV-2, USA-WA1/2020 strain
Type: cell-based
Details: tested conc. 50%; for LRV (log reduction value): compared to the virus control; for Virus titer: lower limit of detection 0.67

CCO [Ethanol]
LRV (log reduction value) (incubation time 15 seconds): >4.0 | Virus titer (incubation time 15 seconds): <0.67 Log10 CCID50 of virus per 0.1 mL | LRV (log reduction value) (incubation time 30 seconds): >3.83 | Virus titer (incubation time 30 seconds): <0.67 Log10 CCID50 of virus per 0.1 mL | LRV (log reduction value) (incubation time 60 seconds): >4.0 | Virus titer (incubation time 60 seconds): <0.67 Log10 CCID50 of virus per 0.1 mL | LRV (log reduction value) (incubation time 5 minutes): >3.83 | Virus titer (incubation time 5 minutes): <0.67 Log10 CCID50 of virus per 0.1 mL
